Experimental data reported in patent US9169217B2, “Arylalkyl esters of 4-amino-6-(substituted phenyl)-picolinates and 6-amino-2-(substituted phenyl)-pyrimidinecarboxylates and their use as selective herbicides for crops” (Dow AgroSciences LLC, priority 2011, dated 2015).

How the values were obtained:
[1] = test system: Cyperus difformis L. (small-flower flatsedge); experiment: Postemergence foliar-applied herbicidal activity in direct seeded rice (Example 16); format: in vivo; details: post-emergence, 504 h, rice cropping systems, foliar-applied, 8.75 g ae/ha, 21 DAA, may represent multiple trials, read-out: Visual Injury (%) CYPDI
From the text: (§1) Seeds or nutlets of the desired test plant species were planted in a soil matrix prepared by mixing a loam soil (43 percent silt, 19 percent clay, and 38 percent sand, with a pH of about 8.1 and an organic matter content of about 1.5 percent) and river sand in an 80 to 20 ratio. The soil matrix was contained in plastic pots with a surface area of 139.7 cm^2. When required to ensure good germination and healthy plants, a fungicide treatment and/or other chemical or physical treatment was applied. The plants were grown for 10-17 d in a greenhouse with an approximate 14-h photoperiod which was maintained at about 29° C. during the day and 26° C. during the night. Nutrients and water were added on a regular basis and supplemental lighting was provided with overhead metal halide 1000-Watt lamps as necessary. The plants were employed for testing when they reached the second or third true leaf stage.
(§2) Treatments consisted of esters of compounds 1-4, 6-8, 10, 11, 13-16, 20-31, 35, 38, 41 and 42 and A-E. Compound A is methyl 4-amino-3-chloro-6-(4-chloro-3-ethoxy-2-fluorophenyl)-5-fluoropicolinate; compound B is methyl 4-amino-3-chloro-6-(4-cyclopropylphenyl)-5-fluoropicolinate; compound C is methyl 4-amino-3-chloro-6-(2,4-dichloro-3-methoxyphenyl)picolinate; compound D is methyl 6-amino-2-(4-chloro-2-fluoro-3-methoxyphenyl)-5-vinylpyrimidine-4-carboxylate; and compound E is methyl 4-amino-3-chloro-6-(4-chloro-2-fluoro-3-methoxyphenyl)-5-fluoropicolinate. Weighed amounts of technical grade compounds were placed in 25 mL glass vials and dissolved in a volume of 97:3 v/v acetone-DMSO to obtain 12× stock solutions. […] The concentrated stock solutions were added to the spray solutions so that the final acetone and DMSO concentrations were 16.2% and 0.5%, respectively. Spray solutions were diluted to the appropriate final concentrations with the addition of 10 mL of an aqueous mixture of 1.5% (v/v) Agri-dex crop oil concentrate. Generally, multiple concentrations of spray solutions were formulated and tested utilizing the same stock solution. The final spray solutions contained 1.25% (v/v) Agri-dex crop oil concentrate. Compound requirements are based upon a 12 mL application volume at a rate of 187 L/ha. Spray solutions were applied to the plant material with an overhead Mandel track sprayer equipped with 8002E nozzles calibrated to deliver 187 L/ha over an application area of 0.503 square meters (m^2) at a spray height of 18 inches (43 cm) above average plant canopy height. Control plants were sprayed in the same manner with the solvent blank.
(§3) The treated plants and control plants were placed in a greenhouse as described above and watered by sub-irrigation to prevent wash-off of the test compounds. After 3 weeks, the condition of the test plants, compared with that of the untreated plants, was determined visually and scored on a scale of 0 to 100 percent where 0 corresponds to no injury and 100 corresponds to complete kill.
(§4) By applying the well-accepted probit analysis as described by J. Berkson in Journal of the American Statistical […], 48, 565 (1953) and by D. Finney in “Probit Analysis” Cambridge University Press (1952), the data gathered can be used to calculate GR50 and GR80 values, which are defined as growth reduction factors that correspond to the effective dose of herbicide required to kill or control 50 percent or 80 percent, respectively, of a target plant.

[2] = test system: Scirpus juncoides ROXB. (Japanese bulrush); experiment: as above; format: in vivo; details: Schoenoplectiella juncoides, post-emergence, 504 h; rice cropping systems, foliar-applied, 8.75 g ae/ha, 21 DAA; may represent multiple trials; read-out: Visual Injury (%) SCPJU
From the text: as §1, §2, §3, §4

[3] = test system: Echinochloa crus-galli (L.) P.BEAUV. (barnyardgrass); experiment: In-water applied herbicidal activity in transplanted paddy rice (Example 17); format: in vivo; details: Echinochloa crus-galli, 504 h; rice cropping systems, in-water applied (paddy), 17.5 g ae/ha, 21 DAA; may represent multiple trials; read-out: Visual Injury (%) ECHCG
Procedure: (§5) Weed seeds or nutlets of the desired test plant species were planted in puddled soil (mud) prepared by mixing a non-sterilized mineral soil (28 percent silt, 18 percent clay, and 54 percent sand, with a pH of about 7.3 to 7.8 and an organic matter content of about 1.0 percent) and water at a ratio of 100 kilograms (kg) of soil to 19 liters (L) of water. The prepared mud was dispensed in 250 mL aliquots into 480 mL non-perforated plastic pots with a surface area of 91.6 cm^2 leaving a headspace of 3 cm in each pot. Rice seeds were planted in Sun Gro MetroMix 306 planting mixture, which typically has a pH of 6.0 to 6.8 and an organic matter content of about 30 percent, in plastic plug trays. Seedlings at the second or third leaf stage of growth were transplanted into 650 mL of mud contained in 960 mL non-perforated plastic pots with a surface area of 91.6 cm^2 four days prior to herbicide application. The paddy was created by filling the 3 cm headspace of the pots with water. When required to ensure good germination and healthy plants, a fungicide treatment and/or other chemical or physical treatment was applied. The plants were grown for 4-14 d in a greenhouse with an approximate 14-h photoperiod which was maintained at about 29° C. during the day and 26° C. during the night. Nutrients were added as Osmocote (17:6:10, Nitrogen:Phosphorus:Potassium (N:P:K)+minor nutrients) at 2 grams (g) per cup. Water was added on a regular basis to maintain the paddy flood, and supplemental lighting was provided with overhead metal halide 1000-Watt lamps as necessary. The plants were employed for testing when they reached the second or third true leaf stage.
(§6) Treatments consisted of esters of compounds 1-4, 6-33, 35-39, 41 and 42 and A-G. Compound A is methyl 4-amino-3-chloro-6-(4-chloro-3-ethoxy-2-fluorophenyl)-5-fluoropicolinate; compound B is methyl 4-amino-3-chloro-6-(4-cyclopropylphenyl)-5-fluoropicolinate; compound C is methyl 4-amino-3-chloro-6-(2,4-dichloro-3-methoxyphenyl)picolinate; compound D is methyl 6-amino-2-(4-chloro-2-fluoro-3-methoxyphenyl)-5-vinylpyrimidine-4-carboxylate; compound E is methyl 4-amino-3-chloro-6-(4-chloro-2-fluoro-3-methoxyphenyl)-5-fluoropicolinate; compound F is methyl 6-amino-2-(4-chloro-2-fluoro-3-methoxyphenyl)-5-methoxypyrimidine-4-carboxylate; and compound G is methyl 4-amino-3-chloro-6-(4-chloro-2-fluoro-3-methoxyphenyl)picolinate. Weighed amounts of technical grade compounds were placed in individual 120 mL glass vials and were dissolved in 20 mL of acetone to obtain concentrated stock solutions. […] The concentrated stock solutions obtained were diluted with 20 mL of an aqueous mixture containing 2.5% Agri-dex crop oil concentrate (v/v). The final application solutions contained 1.25% (v/v) Agri-dex crop oil concentrate. Generally, multiple concentrations were tested utilizing the same stock solution. Applications were made by injecting an appropriate amount of the application solution into the aqueous layer of the paddy. Control plants were treated in the same manner with the solvent blank.
as §3, with “water was added as needed” for “watered by sub-irrigation”, “maintain a paddy flood.” for “prevent wash-off of the test compounds.”, “weeks” for “weeks,”
as §4

[4] = test system: Scirpus juncoides ROXB. (Japanese bulrush); experiment: as above; format: in vivo; details: Schoenoplectiella juncoides, 504 h; rice cropping systems, in-water applied (paddy), 17.5 g ae/ha, 21 DAA; may represent multiple trials; read-out: Visual Injury (%) SCPJU
Procedure: as §5, §6
as §3, with “water was added as needed” for “watered by sub-irrigation”, “maintain a paddy flood.” for “prevent wash-off of the test compounds.”, “weeks” for “weeks,”
as §4

Row | SMILES | melting point [°C] | pest or weed control at 8.75 g/ha [1] [%] | pest or weed control at 8.75 g/ha [2] [%] | pest or weed control at 17.5 g/ha [3] [%] | pest or weed control at 17.5 g/ha [4] [%]
1 | COc1c(Cl)ccc(-c2nc(C(=O)OCc3ccccc3C(F)(F)F)c(Cl)c(N)c2F)c1F [Compound 26] | 133 to 134 | 100 | 100 | 20 | 100
2 | COC(=O)c1cccc(COC(=O)c2nc(-c3ccc(Cl)c(OC)c3F)c(F)c(N)c2Cl)c1 [Compound 29] | 144 to 145 | 100 | 100 | 10 | 60
3 | COC(=O)c1ccccc1COC(=O)c1nc(-c2ccc(Cl)c(OC)c2F)c(F)c(N)c1Cl [Compound 32] | 161 | – | – | 60 | 100
4 | COc1cccc(COC(=O)c2nc(-c3ccc(Cl)c(OC)c3F)c(F)c(N)c2Cl)c1 [Compound 13] | 164 to 165 | 95 | 80 | 98 | 98
5 | COC(=O)c1ccc(COC(=O)c2nc(-c3ccc(Cl)c(OC)c3F)c(F)c(N)c2Cl)cc1 [Compound 16] | 182 | 94 | 85 | 90 | 99

Second part, led by results:

Row | melting point [°C] | SMILES | pest or weed control at 8.75 g/ha [1] [%] | pest or weed control at 8.75 g/ha [2] [%] | pest or weed control at 17.5 g/ha [3] [%] | pest or weed control at 17.5 g/ha [4] [%]
6 | 118 to 119 | COc1c(Cl)ccc(-c2nc(C(=O)OCc3ccc(C(F)(F)F)cc3)c(Cl)c(N)c2F)c1F [Compound 6] | 100 | 100 | 60 | 95
7 | 207 to 208 | COc1c(Cl)ccc(-c2nc(C(=O)OCc3ccc([N+](=O)[O-])cc3)c(Cl)c(N)c2F)c1F [Compound 21] | 100 | 100 | 10 | 80
8 | 139 | COc1c(Cl)ccc(-c2nc(C(=O)OCc3ccc(C)cc3)c(Cl)c(N)c2F)c1F [Compound 3] | 100 | 99 | 78 | 99
9 | 151 | COc1c(Cl)ccc(-c2nc(C(=O)OCc3ccc(C#N)cc3)c(Cl)c(N)c2F)c1F [Compound 4] | 80 | 80 | 95 | 95
